Experimental data reported in patent publication US11318135B2 (priority 2020, dated 2022).
pIC50: −log10 of the molar value. “Also recorded” adds a separate entry of the source. Read-outs that look alike come from different tables or passages of the source.

Legend:
[1] = cited from earlier work
Vero C1008 cells = settings: high concentration of 1.95 g/L; cited from earlier work
EBOV-Zaire type [2] = settings: virus titer in supernatant, Vero E6 cell line, read-out: half-inhibitory concentration (IC50); cited from earlier work
SARS-CoV-2 = assay type: cell-based, SARS-CoV-2 (nCoV-2019BetaCoV/Wuhan/WIV04/2019 strain)
EBOV-Zaire type [3] = settings: drug concentration of above 62.5 mg/L; cited from earlier work
SARS coronavirus = assay type: in vivo, A129 mice; settings: for Death rate: once daily from 4 h to 144 h after challenge, 1*10^6 PFU; for Protection of SARS coronavirus-infected mice from death: intraperitoneal once a day from 4 hours after challenge, 50-200 mg/kg
[4] = 300 mg/kg/d from day 6 to day 13, cited from earlier work
Vero E6 cells = settings: Vero E6, 48 h

Question: With `NC(=O)c1nc(F)cnc1O` [Favipiravir, 6-fluoro-3-hydroxypyrazine-2-carboxamide] as the compound, how does the “mice protected from death” value ([1]; intragastric 300 mg/kg/d (2 times/d, 150 mg/kg per time) from 1 h after challenge for 14 days) read?
Answer: 100%

Question: And the “body weight of the mice in the administration group” value ([1]; intragastric 300 mg/kg/d for 14 days)?
Answer: significantly improved

Question: And the “Cytotoxicity to Vero C1008 cells” value (Vero C1008 cells)?
Answer: not cytotoxic

Question: What about the pIC50 (EBOV-Zaire type [2]) of the same compound?
Answer: 4.17

Question: And the “Reduction of viral RNA load in the cells” value (SARS-CoV-2)?
Answer: the inhibitory activity is dose-dependent

Question: What about the “Inhibition of replication of the SARS-CoV-2 virus genome in the infected supernatant” value (SARS-CoV-2; at concentrations of 100 μM, 33 μM, 11.1 μM and 3.7 μM) of the same compound?
Answer: could effectively inhibit

Question: And the “Reduction of viral nucleic acid load in cells infected by SARS-CoV-2” value (SARS-CoV-2; at micromolar concentration level)?
Answer: can reduce the viral nucleic acid load

Question: And the “Inhibition of cytopathic effect (CPE) of EBOV-Zaire type” value (EBOV-Zaire type [3])?
Answer: completely inhibit

Question: And the Death rate (SARS coronavirus; 50 mg/kg intraperitoneal)?
Answer: 100%

Question: And the Death rate (SARS coronavirus; 100 mg/kg intraperitoneal)?
Answer: 50%

Question: What about the Death rate (SARS coronavirus; 200 mg/kg intraperitoneal) of the same compound?
Answer: 0%

Question: And the “Protection of SARS coronavirus-infected mice from death” value (SARS coronavirus)?
Answer: can effectively protect mice; also recorded: the survival rate is dose-dependent

Question: What about the “Protection of SARS coronavirus-infected mice from death” value (SARS coronavirus; listed as compound represented by Formula I) of the same compound?
Answer: significant protective effect

Question: And the protection rate ([4]; challenge dose of 100% death of placebo group)?
Answer: 100%

Question: And the “body weight, glutamic-pyruvic transaminase, glutamic-oxalic transaminase, viremia” value [4]?
Answer: improved significantly

Question: What about the “Cell viability (% of vehicle control)” value (Vero E6 cells; 0.14 μM) of the same compound?
Answer: 101.61 ± 0.74 % of vehicle control

Question: And the “Cell viability (% of vehicle control)” value (Vero E6 cells; 0.41 μM)?
Answer: 101.38 ± 3.85 % of vehicle control

Question: What about the “Cell viability (% of vehicle control)” value (Vero E6 cells; 1.23 μM) of the same compound?
Answer: 98.57 ± 1.90 % of vehicle control

Question: And the “Cell viability (% of vehicle control)” value (Vero E6 cells; 3.70 μM)?
Answer: 99.09 ± 4.91 % of vehicle control

Question: What about the “Cell viability (% of vehicle control)” value (Vero E6 cells; 11.11 μM) of the same compound?
Answer: 96.42 ± 4.77 % of vehicle control

Question: What about the “Cell viability (% of vehicle control)” value (Vero E6 cells; 33.33 μM) of the same compound?
Answer: 95.21 ± 4.43 % of vehicle control

Question: And the “Cell viability (% of vehicle control)” value (Vero E6 cells; 100 μM)?
Answer: 96.37 ± 1.26 % of vehicle control
